The subject of this test is STZ-diabetic rats. Put plainly: von Frey paw withdrawal thresholds, STZ-diabetic rats given multiple dosing regimens (washout protocol), Example 1. It counts as in vivo, rat. Here is the method: Experimental Animals Ethical approval for this study was obtained from the Animal Experimentation Ethics Committee of The University of Queensland. Adult male Sprague-Dawley (SD) rats (222±4 g) were used for this study. Rats were housed in a temperature controlled room (21+2.0 C) with a 12/12 hour light/dark cycle. Food and water were available ad libitum. Initiation of drug administration occurred at 8-11 weeks post-STZ administration for rats in Experiment 1 (PCT-001) and at 10-12 weeks post-STZ administration for rats in Experiment 2 (PCT-007).
Test Article Tranilast was supplied by the Sponsor and stored at −4° C. until use. Gabapentin (100 mg/kg, dissolved in water for injection) was utilized as the positive control for this study.
Test Article and Vehicle Preparation Test article formulations were prepared freshly on the day of administration by weighing the appropriate amount of bulk powder and suspending it in the required volume of vehicle. Carboxymethyl cellulose ((CMC) 0.5% in water for injection) was utilized as the vehicle for this study.
Test Article Administration. […] The maximum oral gavage volume administered in this study was […]. 4.4
STZ-Diabetic Rat Model of Painful Diabetic Neuropathy. Painful diabetic neuropathy is a common long-term complication of diabetes in humans that develops as a result of a sustained biochemical nerve injury. […] Following the induction of diabetes with intravenous STZ at 70-80 mg/kg, it generally takes 6-8 wks for tactile allodynia, the defining symptom of PDN, to fully develop in both rat hindpaws.
Induction of STZ-Diabetes in Rats. On day 0, rats were anaesthetized with 3% isoflurane:97% O2 and a short polyethylene cannula (0.5 mm ID, 0.8 mm OD) was inserted into the jugular vein to facilitate the intravenous (i.v.) administration of a single dose of streptozotocin (STZ: 70-80 mg/kg). After STZ injection, the cannula was removed and the jugular vein was tied off and the wound was closed. Rats received subcutaneous benzylpenicillin (60 mg) prior to surgery to prevent infection and were kept warm during surgical recovery. Rats were housed singly prior to further experimentation and were monitored daily from the time of STZ administration with regard to general health and well-being.
Von Frey Assessment of Paw Withdrawal Thresholds. Calibrated von Frey filaments were used to determine the lowest mechanical threshold required to evoke a brisk paw withdrawal reflex in the rat hindpaws. Briefly, rats were transferred individually to wire mesh testing cages (20 cm×20 cm×20 cm) and allowed to acclimatize for approximately 10-20 min prior to von Frey testing. Commencing with the von Frey filament that produced the 6 g force, the filament was applied to the plantar surface of the hindpaw until the filament buckled slightly. Absence of a response after 3 s prompted use of the next filament of increasing weight. A withdrawal response within 3 s prompted use of the next filament of decreasing weight. Filaments used produced buckling weights of 2, 4, 6, 8, 10, 12, 14, 16, 18 and 20 g. […] Tactile allodynia is regarded as being fully developed when von Frey PWTs in the injured hindpaws are <6 g.
Restoring von-Frey PWTs in the hindpaws from <6 g to pre-STZ surgery levels (12±2 g) is the treatment goal representing full reversal of tactile allodynia. If drug treatment increases PWTs above pre-surgical baseline values (i.e. >12±2 g), such a response is classified as antinociception. Before administration of STZ, baseline von Frey measurements were assessed. Following STZ administration, baseline PWTs were assessed in the hindpaws at week 8-11 to confirm the development of diabetes-induced tactile allodynia. […]

As for `COc1ccc(/C=C/C(=O)Nc2ccccc2C(=O)O)cc1OC` [Tranilast, 2-[[3-(3,4-dimethoxyphenyl)-1-oxo-2-propenyl]amino]benzoic acid], the “Mean (±SEM) PWT at the mean time of peak response” value (tranilast 300 mg/kg oral, 7th twice-daily dose, 1.5 h post-dosing) is reported as 9.8 (±1.1) g. Further, the “Time of peak anti-allodynia post-dosing” value (tranilast 300 mg/kg oral, 7th twice-daily dose, multiple dosing regimens) was 1 to 1.5 h. The “Mean (±SEM) PWT pre-dose” value (tranilast 300 mg/kg oral, 7th twice-daily dose, pre-dose) was 5.1 (±0.4) g. Further, the “Anti-allodynia in the hindpaws” value (tranilast 30, 100, 200, 300 mg/kg oral, 7 consecutive twice-daily doses, multiple dosing regimens) was “significant anti-allodynia was produced only by the 300 mg/kg dosing regimen”. The “Relief of tactile allodynia, dose dependence” value (tranilast 100-300 mg/kg oral, 7 consecutive twice-daily doses, up to 5 dosing regimens, 2-3 day washout) is reported as “dose-dependent relief of tactile allodynia”.

The values above are taken from patent publication US20090042987A1, “TREATMENT OF NEUROPATHIC PAIN” (priority 2007, published 2009).
